# Laboratory results published in patent US8466166B2, “Benzimidazole derivatives as selective acid pump inhibitors” (Raqualia Pharma Inc., priority 2006, dated 2013).
# Biological target: T1, porcine gastric H+/K+-ATPase (Sus scrofa, UniProt P19156)
# T1 construct: The gastric vesicles were collected from interface on 0.25 M sucrose layer containing 7% Ficoll; from tissue; host or cells: mucous membrane of fresh porcine stomachs (gastric vesicles)
# Experiment: Ion-leaky porcine gastric H+/K+-ATPase inhibition
# Type: biochemical
# Details: ion-leaky lyophilized porcine gastric vesicles, 5 mM KCl, pH 6.4, 37° C., 30 minutes; read-out: IC50 values of the inhibitory activity
# Procedure: The porcine gastric vesicles for Porcine gastric H^+/K^+-ATPase inhibition assays were prepared from mucous membrane in fresh porcine stomachs by homogenization with a tight-fitted polytetrafluoroethylene (Teflone®) homogenizer in 0.25 M sucrose at 4° C. The crude pellet was removed with centrifugation at 20,000 g for 30 min. Then supernatant was centrifuged at 100,000 g for 30 min. The resulting pellet was re-suspended in 0.25 M sucrose, and then subjected to density gradient centrifugation at 132,000 g for 90 min. The gastric vesicles were collected from interface on 0.25 M sucrose layer containing 7% Ficoll™ PM400 (Amersham Biosciences). This procedure was performed in a cold room.
# Ion-leaky porcine gastric H^+/K^+-ATPase inhibition was measured according to the modified method described in Biochemical Pharmacology, 1988, 37, 2231-2236.
# The isolated vesicles were lyophilized, and then kept in deep-freezer until use. For enzyme assay, lyophilized vesicles were reconstituted with 3 mM MgSO4 containing 40 mM Bis-tris (pH 6.4 at 37° C.).
# Enzyme reaction was performed incubating 5 mM KCl, 3 mM Na2ATP, 3 mM MgSO4 and 1.0 μg of reconstituted vesicles for 30 minutes at 37° C. in a final 60 μl of reaction mixture (40 mM Bis-tris, pH 6.4) with or without the test compound. Enzyme reaction was stopped by adding 10% sodium dodecyl sulphate (SDS). Released inorganic phosphate from ATP was detected by incubation with mixture of 1 part of 35 mM ammonium molybdate tetrahydrate in 15 mM Zinc acetate hydrate and 4 parts of 10% ascorbic acid (pH 5.0), resulting in phosphomolybdate, which has optical density at 750 nm.
# T1 sequence (P19156 2-1034 limits assumed): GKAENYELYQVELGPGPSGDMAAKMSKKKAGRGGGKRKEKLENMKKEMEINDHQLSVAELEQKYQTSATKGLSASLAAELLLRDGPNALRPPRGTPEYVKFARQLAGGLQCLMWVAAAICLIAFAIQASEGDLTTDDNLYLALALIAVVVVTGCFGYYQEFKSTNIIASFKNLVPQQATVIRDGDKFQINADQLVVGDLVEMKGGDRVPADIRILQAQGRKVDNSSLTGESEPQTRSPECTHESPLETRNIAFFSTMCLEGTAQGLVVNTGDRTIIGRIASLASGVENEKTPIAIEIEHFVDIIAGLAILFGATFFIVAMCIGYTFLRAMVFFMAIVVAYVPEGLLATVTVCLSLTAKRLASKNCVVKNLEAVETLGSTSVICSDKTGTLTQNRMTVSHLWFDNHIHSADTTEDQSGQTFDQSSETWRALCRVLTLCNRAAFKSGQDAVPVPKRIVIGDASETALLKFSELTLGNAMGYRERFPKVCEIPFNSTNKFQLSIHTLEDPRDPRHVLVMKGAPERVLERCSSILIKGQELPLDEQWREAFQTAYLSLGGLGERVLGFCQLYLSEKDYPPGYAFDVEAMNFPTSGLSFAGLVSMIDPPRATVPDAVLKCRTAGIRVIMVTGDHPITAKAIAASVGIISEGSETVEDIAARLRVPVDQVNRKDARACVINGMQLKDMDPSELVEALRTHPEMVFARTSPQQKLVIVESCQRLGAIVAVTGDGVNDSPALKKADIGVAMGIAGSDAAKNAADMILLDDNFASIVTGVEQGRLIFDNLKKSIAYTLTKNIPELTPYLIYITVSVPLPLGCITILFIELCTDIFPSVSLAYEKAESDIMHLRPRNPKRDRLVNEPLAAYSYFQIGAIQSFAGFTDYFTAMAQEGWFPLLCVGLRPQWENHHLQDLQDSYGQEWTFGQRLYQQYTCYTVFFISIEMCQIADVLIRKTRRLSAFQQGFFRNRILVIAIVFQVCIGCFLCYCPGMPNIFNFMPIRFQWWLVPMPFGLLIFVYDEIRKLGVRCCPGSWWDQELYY
# T1 sequence (P18434 whole entry partner): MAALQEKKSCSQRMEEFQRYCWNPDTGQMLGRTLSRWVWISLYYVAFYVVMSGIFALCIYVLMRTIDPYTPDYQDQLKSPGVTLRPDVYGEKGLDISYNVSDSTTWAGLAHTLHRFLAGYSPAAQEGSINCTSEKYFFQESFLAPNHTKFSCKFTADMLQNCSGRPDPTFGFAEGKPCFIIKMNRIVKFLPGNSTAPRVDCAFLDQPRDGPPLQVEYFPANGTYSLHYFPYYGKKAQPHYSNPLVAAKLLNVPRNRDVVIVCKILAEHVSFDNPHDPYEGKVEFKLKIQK
row,SMILES,IC50
1,"COCCn1c(C)nc2cc(C(=O)N(C)C)c3c(c21)OC(c1ccccc1)CC3 (racemic) [Example 1, 1-(2-Methoxyethyl)-N,N,2-trimethyl-8-phenyl-1,6,7,8-tetrahydrochromeno[7,8-d]imidazole-5-carboxamide]",98 nM
2,"COCCn1c(C)nc2cc(C(=O)N(C)C)c3c(c21)OC(c1ccc(F)cc1)CC3 (racemic) [Example 5, 8-(4-Fluorophenyl)-1-(2-methoxyethyl)-N,N,2-trimethyl-1,6,7,8-tetrahydrochromeno[7,8-d]imidazole-5-carboxamide]",88 nM
3,"COCCn1c(C)nc2cc(C(=O)N(C)CCO)c3c(c21)OC(c1ccc(F)cc1F)CC3 (racemic) [Example 11, 8-(2,4-Difluorophenyl)-N-(2-hydroxyethyl)-1-(2-methoxyethyl)-N,2-dimethyl-1,6,7,8-tetrahydrochromeno[7,8-d]imidazole-5-carboxamide]",210 nM
4,"COCCn1c(C)nc2cc(C(=O)N3CCC3)c3c(c21)OC(c1ccccc1)CC3 (racemic) [Example 15, 5-(Azetidin-1-ylcarbonyl)-1-(2-methoxyethyl)-2-methyl-8-phenyl-1,6,7,8-tetrahydrochromeno[7,8-d]imidazole]",200 nM
5,"COCCn1c(C)nc2cc(C(=O)N(C)C)c3c(c21)OC(c1ccccc1)CC3 (single isomer, unassigned; (+)) [Example 2, (+)-1-(2-Methoxyethyl)-N,N,2-trimethyl-8-phenyl-1,6,7,8-tetrahydrochromeno[7,8-d]imidazole-5-carboxamide]",520 nM
6,"COCCn1c(C)nc2cc(C(=O)N(C)C)c3c(c21)OC(c1ccc(F)cc1)CC3 (single isomer, unassigned; (+)) [Example 6, (+)-8-(4-Fluorophenyl)-1-(2-methoxyethyl)-N,N,2-trimethyl-1,6,7,8-tetrahydrochromeno[7,8-d]imidazole-5-carboxamide]",230 nM
7,"COCCn1c(C)nc2cc(C(=O)N(C)CCO)c3c(c21)OC(c1ccc(F)cc1F)CC3 (single isomer, unassigned; (+)) [Example 13, (+)-8-(2,4-Difluorophenyl)-N-(2-hydroxyethyl)-1-(2-methoxyethyl)-N,2-dimethyl-1,6,7,8-tetrahydrochromeno[7,8-d]imidazole-5-carboxamide]",340 nM
8,"COCCn1c(C)nc2cc(C(=O)N3CCC3)c3c(c21)OC(c1ccccc1)CC3 (single isomer, unassigned; (+)) [Example 17, (+)-5-(Azetidin-1-ylcarbonyl)-1-(2-methoxyethyl)-2-methyl-8-phenyl-1,6,7,8-tetrahydrochromeno[7,8-d]imidazole]",1000 nM
9,"COCCn1c(C)nc2cc(C(=O)N(C)C)c3c(c21)OC(c1ccccc1)CC3 (single isomer, unassigned; (-)) [Example 3, (−)-1-(2-Methoxyethyl)-N,N,2-trimethyl-8-phenyl-1,6,7,8-tetrahydrochromeno[7,8-d]imidazole-5-carboxamide]",68 nM
10,"COCCn1c(C)nc2cc(C(=O)N(C)C)c3c(c21)OC(c1ccc(F)cc1)CC3 (single isomer, unassigned; (-)) [Example 7, (−)-8-(4-Fluorophenyl)-1-(2-methoxyethyl)-N,N,2-trimethyl-1,6,7,8-tetrahydrochromeno[7,8-d]imidazole-5-carboxamide]",38 nM
11,"COCCn1c(C)nc2cc(C(=O)N(C)CCO)c3c(c21)OC(c1ccc(F)cc1F)CC3 (single isomer, unassigned; (-)) [Example 12, (−)-8-(2,4-Difluorophenyl)-N-(2-hydroxyethyl)-1-(2-methoxyethyl)-N,2-dimethyl-1,6,7,8-tetrahydrochromeno[7,8-d]imidazole-5-carboxamide]",90 nM
12,"COCCn1c(C)nc2cc(C(=O)N3CCC3)c3c(c21)OC(c1ccccc1)CC3 (single isomer, unassigned; (-)) [Example 16, (−)-5-(Azetidin-1-ylcarbonyl)-1-(2-methoxyethyl)-2-methyl-8-phenyl-1,6,7,8-tetrahydrochromeno[7,8-d]imidazole]",74 nM
13,"COCCn1c(C)nc2cc(C(=O)N(C)CCO)c3c(c21)OC(c1ccccc1)CC3 (centres unmarked) [Example 4, N-(2-Hydroxyethyl)-1-(2-methoxyethyl)-N,2-dimethyl-8-phenyl-1,6,7,8-tetrahydrochromeno[7,8-d]imidazole-5-carboxamide]",190 nM
14,"Cc1nc2cc(C(=O)N(C)C)c3c(c2n1CCCO)OC(c1ccc(F)cc1)CC3 (centres unmarked) [Example 8, 8-(4-Fluorophenyl)-1-(3-hydroxypropyl)-N,N,2-trimethyl-1,6,7,8-tetrahydrochromeno[7,8-d]imidazole-5-carboxamide]",340 nM
15,"Cc1nc2cc(C(=O)N(C)C)c3c(c2n1Cc1ccon1)OC(c1ccc(F)cc1)CC3 (centres unmarked) [Example 9, 8-(4-Fluorophenyl)-1-(isoxazol-3-ylmethyl)-N,N,2-trimethyl-1,6,7,8-tetrahydrochromeno[7,8-d]imidazole-5-carboxamide]",350 nM
16,"[2H]C([2H])([2H])N(C(=O)c1cc2nc(C)n(CCOC)c2c2c1CCC(c1ccccc1)O2)C([2H])([2H])[2H] (centres unmarked) [Example 10, N,N-Di[^2H3]methyl-1-(2-methoxyethyl)-2-methyl-8-phenyl-1,6,7,8-tetrahydrochromeno[7,8-d]imidazole-5-carboxamide]",100 nM
17,"COCCn1c(C)nc2cc(C(=O)N3CC(F)C3)c3c(c21)OC(c1ccccc1)CC3 (centres unmarked) [Example 14, 5-[(3-Fluoroazetidin-1-yl)carbonyl]-1-(2-methoxyethyl)-2-methyl-8-phenyl-1,6,7,8-tetrahydrochromeno[7,8-d]imidazole]",270 nM
